Assays:
Conditions in all cases: incubation time: 72 h
CAL-85-1 [1] = assay: normalised response (% of control), CellTiter-Glo; higher = more viable cells (100 = DMSO, 0 = benzethonium chloride kill control)
Method: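 DSRT, 72 h incubation, CellTox Green / CellTiter-Glo readout. Signal is normalised to DMSO and benzethonium chloride controls. Value is the normalised response at the highest dose.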

MDA-MB-468 [2] = assay: drug sensitivity score (DSS), CellTox Green (DSS (AUC-based score)); higher = stronger drug effect (viability inhibition or cytotoxicity); extreme values may be limits of the assay
Method in brief: (§1)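 A drug sensitivity score was derived from the area under each fitted dose-response curve. Breast cancer cells (20 µl suspension) were seeded onto compound in 384-well plates, using 5 concentrations 10-fold apart over a compound-specific 10,000-fold range, and incubated 72 h. Readouts were CellTox Green fluorescence and then CellTiter-Glo luminescence, with every plate normalised to 0.1 % DMSO and a positive kill control.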

CAL-120 [3] = assay: as above
Method in brief: as §1

MDA-MB-453 [4] = assay: as above
Method in brief: as §1

HCC1143 [5] = assay: as above
Method in brief: as §1

HCC1599 [6] = assay: as above
Method in brief: as §1

MDA-MB-468 [7] = assay: drug sensitivity score (DSS), CellTiter-Glo (DSS (AUC-based score)); higher = stronger drug effect (viability inhibition or cytotoxicity); extreme values may be limits of the assay
Method in brief: as §1

BT-549 = assay: as above
Method in brief: as §1

CAL-148 = assay: as above
Method in brief: as §1

MDA-MB-436 = assay: as above
Method in brief: as §1

CAL-120 [8] = assay: as above
Method in brief: as §1

MCF-10A = assay: as above
Method in brief: as §1

Hs578T = assay: as above
Method in brief: as §1

CAL-85-1 [9] = assay: as above
Method in brief: as §1

MFM-223 = assay: as above
Method in brief: as §1

DU-4475 = assay: as above
Method in brief: as §1

CAL-51 = assay: as above
Method in brief: as §1

MDA-MB-453 [10] = assay: as above
Method in brief: as §1

HDQ-P1 = assay: as above
Method in brief: as §1

MDA-MB-231 = assay: as above
Method in brief: as §1

HCC1143 [11] = assay: as above
Method in brief: as §1

HCC1599 [12] = assay: as above
Method in brief: as §1

SK-BR-3 = assay: as above
Method in brief: as §1

HCC1937 = assay: as above
Method in brief: as §1

BT-474 = assay: as above
Method in brief: as §1

Q: How did the normalised response (CAL-85-1 [1]) turn out when CC[C@]1(O)C[C@@H]2CN(CCc3c([nH]c4ccccc34)[C@@](C(=O)OC)(c3cc4c(cc3OC)N(C)[C@H]3[C@@](O)(C(=O)OC)[C@H](OC(C)=O)[C@]5(CC)C=CCN6CC[C@]43[C@@H]65)C2)C1 [Vinblastine] (1000 nM) was run?
A: 50.3%

Q: Cc1ccc(F)c(NC(=O)Nc2ccc(-c3cccc4[nH]nc(N)c34)cc2)c1 [Linifanib] (1000 nM) was tested. Which normalised response (CAL-85-1 [1]) did it give?
A: 101%

Q: How did the normalised response (CAL-85-1 [1]) turn out when Clc1ccc(C(c2ccccc2Cl)C(Cl)Cl)cc1 (stereo not drawn) [Mitotane] (10000 nM) was run?
A: 97%

Q: For S=c1[nH]cnc2nc[nH]c12 [Mercaptopurine] (10000 nM), which normalised response (CAL-85-1 [1]) is on record?
A: 79.3%

Q: With CO[C@H]1C[C@@H]2CC[C@@H](C)[C@@](O)(O2)C(=O)C(=O)N2CCCC[C@H]2C(=O)O[C@H]([C@H](C)C[C@@H]2CC[C@@H](OC(=O)C(C)(CO)CO)[C@H](OC)C2)CC(=O)[C@H](C)/C=C(\C)[C@@H](O)[C@@H](OC)C(=O)[C@H](C)C[C@H](C)/C=C/C=C/C=C/1C [Temsirolimus] (100 nM) as the compound, how does the normalised response (CAL-85-1 [1]) read?
A: 60.5%

Q: CN(C)C/C=C/C(=O)Nc1cc2c(Nc3ccc(F)c(Cl)c3)ncnc2cc1O[C@H]1CCOC1 [Afatinib] (1000 nM) was tested. Which normalised response (CAL-85-1 [1]) did it give?
A: 61.7%

Q: With Cc1c2oc3c(C)ccc(C(=O)N[C@@H]4C(=O)N[C@H](C(C)C)C(=O)N5CCC[C@H]5C(=O)N(C)CC(=O)N(C)[C@@H](C(C)C)C(=O)O[C@@H]4C)c3nc-2c(C(=O)N[C@@H]2C(=O)N[C@H](C(C)C)C(=O)N3CCC[C@H]3C(=O)N(C)CC(=O)N(C)[C@@H](C(C)C)C(=O)O[C@@H]2C)c(N)c1=O [Dactinomycin] (1000 nM) as the compound, how does the normalised response (CAL-85-1 [1]) read?
A: 5.09%

Q: With C=CC[C@@H]1/C=C(\C)C[C@H](C)C[C@H](OC)[C@H]2O[C@@](O)(C(=O)C(=O)N3CCCC[C@H]3C(=O)O[C@H](/C(C)=C/[C@@H]3CC[C@@H](O)[C@H](OC)C3)[C@H](C)[C@@H](O)CC1=O)[C@H](C)C[C@@H]2OC [Tacrolimus] (10000 nM) as the compound, how does the normalised response (CAL-85-1 [1]) read?
A: 99.6%

Q: Which normalised response (CAL-85-1 [1]) does the source give for Nc1nc(Cl)nc2c1ncn2[C@H]1C[C@H](O)[C@@H](CO)O1 [Cladribine] (1000 nM) here?
A: 75.5%

Q: Which normalised response (CAL-85-1 [1]) does the source give for COc1cccc2c1C(=O)c1c(O)c3c(c(O)c1C2=O)C[C@@](O)(C(=O)CO)C[C@@H]3O[C@H]1C[C@H](N)[C@H](O)[C@H](C)O1 [Doxorubicin] (1000 nM) here?
A: 17.7%

Q: For CS(=O)(=O)c1ccc(C(=O)Nc2ccc(Cl)c(-c3ccccn3)c2)c(Cl)c1 [Vismodegib] (10000 nM), which normalised response (CAL-85-1 [1]) is on record?
A: 103%

Q: CN1CC[C@H](c2c(O)cc(O)c3c(=O)cc(-c4ccccc4Cl)oc23)[C@H](O)C1 [Alvocidib] (10000 nM) was tested. Which normalised response (CAL-85-1 [1]) did it give?
A: 7.8%

Q: Which normalised response (CAL-85-1 [1]) does the source give for COc1cccc2cc(-c3nc([C@H]4CC[C@H](C(=O)O)CC4)n4ncnc(N)c34)[nH]c12 [OSI-027] (10000 nM) here?
A: 30.1%

Q: How did the normalised response (CAL-85-1 [1]) turn out when C[C@]1(c2nc3c(C(N)=O)cccc3[nH]2)CCCN1 [Veliparib] (10000 nM) was run?
A: 104%

Q: For OC[C@H]1O[C@@H](n2cnc3c2N=CNC[C@H]3O)C[C@@H]1O [Pentostatin] (10000 nM), which normalised response (CAL-85-1 [1]) is on record?
A: 99.2%

Q: C=CCNC1=C2C[C@@H](C)C[C@H](OC)[C@H](O)[C@@H](C)/C=C(\C)[C@H](OC(N)=O)[C@@H](OC)/C=C\C=C(/C)C(=O)NC(=CC1=O)C2=O [Tanespimycin] (10000 nM) was tested. Which normalised response (CAL-85-1 [1]) did it give?
A: 21.2%

Q: How did the normalised response (CAL-85-1 [1]) turn out when CN1CCC(COc2cnc(-c3cccc(Cn4nc(-c5cccc(C#N)c5)ccc4=O)c3)nc2)CC1 (1000 nM) was run?
A: 99.8%

Q: For Clc1ccc(C(c2ccccc2Cl)C(Cl)Cl)cc1 (stereo not drawn) [Mitotane], which drug sensitivity score (MDA-MB-468 [2]) is on record?
A: 0

Q: And the drug sensitivity score (CAL-120 [3])?
A: 0

Q: And the drug sensitivity score (MDA-MB-453 [4])?
A: 0

Q: What about the drug sensitivity score (HCC1143 [5]) of the same compound?
A: 2.11

Q: What about the drug sensitivity score (HCC1599 [6]) of the same compound?
A: 0

Q: What about the drug sensitivity score (MDA-MB-468 [7]) of the same compound?
A: 0

Q: What about the drug sensitivity score (BT-549) of the same compound?
A: 0

Q: What about the drug sensitivity score (CAL-148) of the same compound?
A: 0

Q: And the drug sensitivity score (MDA-MB-436)?
A: 0

Q: And the drug sensitivity score (CAL-120 [8])?
A: 0

Q: And the drug sensitivity score (MCF-10A)?
A: 0

Q: What about the drug sensitivity score (Hs578T) of the same compound?
A: 0

Q: And the drug sensitivity score (CAL-85-1 [9])?
A: 0

Q: And the drug sensitivity score (MFM-223)?
A: 0

Q: What about the drug sensitivity score (DU-4475) of the same compound?
A: 0

Q: What about the drug sensitivity score (CAL-51) of the same compound?
A: 0

Q: What about the drug sensitivity score (MDA-MB-453 [10]) of the same compound?
A: 0

Q: And the drug sensitivity score (HDQ-P1)?
A: 0

Q: And the drug sensitivity score (MDA-MB-231)?
A: 0

Q: And the drug sensitivity score (HCC1143 [11])?
A: 0

Q: And the drug sensitivity score (HCC1599 [12])?
A: 0

Q: And the drug sensitivity score (SK-BR-3)?
A: 0

Q: What about the drug sensitivity score (HCC1937) of the same compound?
A: 0

Q: What about the drug sensitivity score (BT-474) of the same compound?
A: 0

Q: With Nc1ccn([C@@H]2O[C@H](CO)[C@@H](O)[C@@H]2O)c(=O)n1 [Cytarabine] (10000 nM) as the compound, how does the normalised response (CAL-85-1 [1]) read?
A: 69.3%

Q: For N#CC[C@H](C1CCCC1)n1cc(-c2ncnc3[nH]ccc23)cn1 [Ruxolitinib] (10000 nM), which normalised response (CAL-85-1 [1]) is on record?
A: 98.5%
